The source made the active and inactive calls.
Legend:
cells = format: functional, cell-based
Streptococcus = test: Group A Streptococcus viability loss, dose response, counter-screen for streptokinase expression inhibitor project, luminescence, BacTiterGlo (AID 1915); format: functional, organism-based;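 note: potency for reduction of bacterial viability or growth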
Streptokinase A = molecular target: T1, Streptokinase A (Streptococcus pyogenes serotype M1, UniProt P10520); test: S. pyogenes streptokinase expression inhibitors, potency, dose response, plasminogen activation absorbance, OD405 (AID 1914); format: functional, Streptococcus pyogenes M1 GAS;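 note: secreted streptokinase activity via plasminogen activation per viability signal from cell pellet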
T1 sequence (P10520 whole entry): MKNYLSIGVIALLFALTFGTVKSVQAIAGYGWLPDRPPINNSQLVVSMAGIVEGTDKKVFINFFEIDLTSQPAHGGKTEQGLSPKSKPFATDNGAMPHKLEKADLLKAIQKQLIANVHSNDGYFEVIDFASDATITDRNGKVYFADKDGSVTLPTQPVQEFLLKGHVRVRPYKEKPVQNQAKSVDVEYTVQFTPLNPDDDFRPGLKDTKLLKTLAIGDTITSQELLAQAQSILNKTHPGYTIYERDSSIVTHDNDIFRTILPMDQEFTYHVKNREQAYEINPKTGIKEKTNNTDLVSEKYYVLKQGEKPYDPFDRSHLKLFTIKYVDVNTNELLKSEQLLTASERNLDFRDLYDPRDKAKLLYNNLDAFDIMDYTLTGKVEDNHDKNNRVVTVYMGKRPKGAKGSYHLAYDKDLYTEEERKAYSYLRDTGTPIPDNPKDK

[1] = molecular target: T2, Nuclear receptor subfamily 0 group B member 1 (Homo sapiens, UniProt P51843); format: functional, cell-based;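 note: HEK293T cells transfected with SF-1 and DAX-1 plus StAR promoter luciferase reporter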
T2 sequence (P51843 whole entry): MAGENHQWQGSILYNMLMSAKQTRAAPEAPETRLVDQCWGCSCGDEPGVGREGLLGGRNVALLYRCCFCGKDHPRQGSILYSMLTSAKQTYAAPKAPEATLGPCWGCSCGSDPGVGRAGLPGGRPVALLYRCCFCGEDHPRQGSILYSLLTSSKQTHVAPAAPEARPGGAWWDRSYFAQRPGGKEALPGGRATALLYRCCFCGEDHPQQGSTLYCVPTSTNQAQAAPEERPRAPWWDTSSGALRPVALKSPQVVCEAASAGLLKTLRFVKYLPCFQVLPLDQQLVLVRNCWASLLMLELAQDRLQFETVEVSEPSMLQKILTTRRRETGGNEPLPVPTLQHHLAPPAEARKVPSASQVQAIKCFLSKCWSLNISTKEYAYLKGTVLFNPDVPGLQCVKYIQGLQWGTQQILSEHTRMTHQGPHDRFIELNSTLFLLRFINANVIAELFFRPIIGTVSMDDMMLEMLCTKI

[2] = system: Streptococcus sp. 'group A'; test: growth inhibition of control SK(-) GAS strain, dose response, counter-screen for streptokinase expression inhibitor project, luminescence, kanamycin, BacTiterGlo, confirmation (AID 1900); format: functional, organism-based
[3] = molecular target: T3, G-protein coupled receptor 55 (Homo sapiens, UniProt Q9Y2T6); test: GPR55 antagonists blocking LPI-driven arrestin recruitment, primary screen, imaging, U2OS, beta-arrestin-GFP, LPI agonist (AID 2013); format: functional;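 note: antagonist potency measured as reduced agonist-driven arrestin aggregation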
HeLa = test: HeLa cell cytotoxicity, dose response, cytotoxicity control for MITF activator project, CellTiter-Glo luminescence, cherry-pick samples (AID 540259); format: functional, cell-based; details: Homo sapiens
Cytochrome P450 2C19 = Cytochrome P450 2C19 (Homo sapiens, UniProt P33261); test: Cytochrome panel assay with activity outcomes. Panel member name: p450-cyp2c19 Compounds with AC50 equal or less than 10 uM are considered active; format: functional; details: read-out: AC50
Trypsin = Trypsin (Sus scrofa, UniProt P00761); test: porcine trypsin inhibitors, dose response, selectivity assay for Rce1 protease inhibitor project, biochemical, quenched peptide fluorescence, cherry-pick (AID 488789)
CAAX prenyl protease 2 [4] = molecular target: T4, CAAX prenyl protease 2 (Homo sapiens, UniProt Q9Y256); test: human Rce1 protease inhibitors, dose response, biochemical, yeast membranes, quenched-peptide fluorescence, cherry-pick (AID 588849)
T4 sequence (Q9Y256 whole entry): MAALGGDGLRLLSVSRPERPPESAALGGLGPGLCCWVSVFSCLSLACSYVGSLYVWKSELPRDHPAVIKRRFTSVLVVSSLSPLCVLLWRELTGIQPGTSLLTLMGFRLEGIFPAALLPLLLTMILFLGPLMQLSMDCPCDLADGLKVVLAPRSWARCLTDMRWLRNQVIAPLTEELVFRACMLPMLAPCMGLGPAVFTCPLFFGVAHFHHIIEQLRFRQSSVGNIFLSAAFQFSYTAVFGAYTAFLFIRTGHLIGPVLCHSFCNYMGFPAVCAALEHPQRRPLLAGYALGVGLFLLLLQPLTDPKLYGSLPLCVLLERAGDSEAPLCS

Cytochrome P450 3A4 = Cytochrome P450 3A4 (Homo sapiens, UniProt P08684);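 note: CYP3A4 tested as one member of a cytochrome P450 panel screen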
CAAX prenyl protease 2 [5] = molecular target: CAAX prenyl protease 2 (Saccharomyces cerevisiae S288c, UniProt Q03530); format: biochemical
Cytochrome P450 2C9 = Cytochrome P450 2C9 (Homo sapiens, UniProt P11712)
Troponin, cardiac muscle = Troponin, cardiac muscle (Homo sapiens, UniProt P19429+P45379+P63316); test: Fluorescence-based biochemical high throughput dose response assay for activators of the calcium sensitivity of cardiac Regulated Thin Filaments (RTF). [Related pubchem assays (depositor defined):AID493008, AID493018, AID504382, AID504383]; format: protein-complex assay
[6] = molecular target: DNA dC->dU-editing enzyme APOBEC-3G (Homo sapiens, UniProt Q9HC16); format: functional;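 note: Dose-response counterscreen measuring inhibition of APOBEC3G DNA deaminase activity, run while confirming APOBEC3A inhibitors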
[7] = molecular target: DNA dC->dU-editing enzyme APOBEC-3A (Homo sapiens, UniProt P31941); test: Dose Response confirmation of small molecule APOBEC3A DNA Deaminase Inhibitors via a fluorescence-based single-stranded DNA deaminase assay. [Related pubchem assays (depositor defined):AID493011, AID493024]; format: functional
X-box-binding protein 1 = molecular target: T5, X-box-binding protein 1 (Homo sapiens, UniProt P17861); format: functional, Cricetulus griseus;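 note: confirmatory dose-response counter-screen serving a CHOP assay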
T5 sequence (P17861 whole entry): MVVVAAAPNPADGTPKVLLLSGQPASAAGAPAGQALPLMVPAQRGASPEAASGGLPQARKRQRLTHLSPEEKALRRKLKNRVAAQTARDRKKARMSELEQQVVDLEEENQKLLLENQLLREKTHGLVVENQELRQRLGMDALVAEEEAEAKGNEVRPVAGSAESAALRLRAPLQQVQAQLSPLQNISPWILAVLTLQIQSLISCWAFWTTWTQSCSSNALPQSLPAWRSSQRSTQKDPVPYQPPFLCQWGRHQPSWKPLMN

[8] = molecular target: DNA damage-inducible transcript 3 protein (Mus musculus, UniProt P35639); format: functional, Cricetulus griseus
[9] = molecular target: G-protein coupled receptor 35 (Homo sapiens, UniProt Q9HC97); test: SAR analysis of Antagonists of the GPR35 Receptor using an Image-Based Assay - Set 5. [Related pubchem assays (depositor defined):AID2058, AID2079]; format: functional
[10] = molecular target: T3, G-protein coupled receptor 55; test: SAR Analysis of Selective Antagonists of GPR55 using an Image-Based Assay - Set 3. [Related pubchem assays (depositor defined):AID2058, AID2079]; format: functional

T3 sequence (Q9Y2T6 whole entry): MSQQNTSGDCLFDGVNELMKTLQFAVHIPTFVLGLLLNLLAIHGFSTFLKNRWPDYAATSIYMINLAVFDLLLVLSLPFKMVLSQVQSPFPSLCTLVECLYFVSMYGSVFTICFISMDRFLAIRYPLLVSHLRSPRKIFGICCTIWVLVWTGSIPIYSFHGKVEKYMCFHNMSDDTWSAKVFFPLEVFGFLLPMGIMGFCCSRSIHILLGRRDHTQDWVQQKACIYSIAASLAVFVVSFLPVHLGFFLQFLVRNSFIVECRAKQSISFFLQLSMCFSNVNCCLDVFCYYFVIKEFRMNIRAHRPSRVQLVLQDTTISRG
Chain of DNA dC->dU-editing enzyme APOBEC-3A (P31941 whole entry): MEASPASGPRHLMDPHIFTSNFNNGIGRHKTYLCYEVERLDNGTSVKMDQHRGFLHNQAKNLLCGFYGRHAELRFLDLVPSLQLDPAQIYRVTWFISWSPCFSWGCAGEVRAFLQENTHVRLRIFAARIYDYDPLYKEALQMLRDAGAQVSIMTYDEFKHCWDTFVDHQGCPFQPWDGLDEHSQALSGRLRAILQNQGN
Chain of Cytochrome P450 2C9 (P11712 whole entry): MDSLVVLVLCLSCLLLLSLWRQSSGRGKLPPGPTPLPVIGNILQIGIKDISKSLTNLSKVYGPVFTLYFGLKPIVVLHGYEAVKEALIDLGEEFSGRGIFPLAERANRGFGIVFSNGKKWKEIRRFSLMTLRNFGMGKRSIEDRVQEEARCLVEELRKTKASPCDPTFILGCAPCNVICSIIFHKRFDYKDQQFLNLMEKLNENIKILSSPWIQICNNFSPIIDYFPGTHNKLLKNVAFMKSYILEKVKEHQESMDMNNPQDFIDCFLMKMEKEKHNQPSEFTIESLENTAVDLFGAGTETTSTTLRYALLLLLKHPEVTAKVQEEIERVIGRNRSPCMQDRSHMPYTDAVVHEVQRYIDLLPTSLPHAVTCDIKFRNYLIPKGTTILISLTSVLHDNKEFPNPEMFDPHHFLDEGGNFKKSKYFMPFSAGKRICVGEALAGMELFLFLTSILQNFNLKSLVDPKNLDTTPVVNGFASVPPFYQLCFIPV
Chain of DNA dC->dU-editing enzyme APOBEC-3G (Q9HC16 whole entry): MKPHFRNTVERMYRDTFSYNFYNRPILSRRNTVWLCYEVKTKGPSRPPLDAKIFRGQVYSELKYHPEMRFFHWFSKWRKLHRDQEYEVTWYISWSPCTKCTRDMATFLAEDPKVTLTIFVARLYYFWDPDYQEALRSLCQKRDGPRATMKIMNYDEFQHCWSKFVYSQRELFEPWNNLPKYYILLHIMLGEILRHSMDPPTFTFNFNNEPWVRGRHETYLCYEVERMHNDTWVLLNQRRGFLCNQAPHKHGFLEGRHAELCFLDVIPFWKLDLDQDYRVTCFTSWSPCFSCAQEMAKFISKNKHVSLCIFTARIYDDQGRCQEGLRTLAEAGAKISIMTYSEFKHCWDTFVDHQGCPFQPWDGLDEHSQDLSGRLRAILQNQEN
Chain of DNA damage-inducible transcript 3 protein (P35639 whole entry): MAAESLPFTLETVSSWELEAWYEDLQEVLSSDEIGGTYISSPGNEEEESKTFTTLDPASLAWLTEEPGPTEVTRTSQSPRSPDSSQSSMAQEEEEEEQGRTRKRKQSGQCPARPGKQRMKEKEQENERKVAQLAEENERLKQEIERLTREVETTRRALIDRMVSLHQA
Chain of CAAX prenyl protease 2 (Saccharomyces cerevisiae S288c, UniProt Q03530) (Q03530 whole entry): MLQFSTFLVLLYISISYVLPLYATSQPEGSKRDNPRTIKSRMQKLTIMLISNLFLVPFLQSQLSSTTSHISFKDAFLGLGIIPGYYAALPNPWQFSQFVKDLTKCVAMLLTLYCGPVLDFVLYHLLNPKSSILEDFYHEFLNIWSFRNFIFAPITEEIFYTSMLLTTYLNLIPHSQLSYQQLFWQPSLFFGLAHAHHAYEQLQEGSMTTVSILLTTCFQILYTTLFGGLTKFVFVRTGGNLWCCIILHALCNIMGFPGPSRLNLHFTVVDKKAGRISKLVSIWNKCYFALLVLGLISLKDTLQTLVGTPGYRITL
Chain of Trypsin (P00761 whole entry): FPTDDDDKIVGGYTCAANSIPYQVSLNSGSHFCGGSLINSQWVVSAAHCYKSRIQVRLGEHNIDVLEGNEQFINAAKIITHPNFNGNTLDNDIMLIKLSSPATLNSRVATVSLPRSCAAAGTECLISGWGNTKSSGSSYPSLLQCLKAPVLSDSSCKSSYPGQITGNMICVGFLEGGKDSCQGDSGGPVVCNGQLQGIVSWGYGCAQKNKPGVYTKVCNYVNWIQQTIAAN
Chain of Cytochrome P450 2C19 (P33261 whole entry): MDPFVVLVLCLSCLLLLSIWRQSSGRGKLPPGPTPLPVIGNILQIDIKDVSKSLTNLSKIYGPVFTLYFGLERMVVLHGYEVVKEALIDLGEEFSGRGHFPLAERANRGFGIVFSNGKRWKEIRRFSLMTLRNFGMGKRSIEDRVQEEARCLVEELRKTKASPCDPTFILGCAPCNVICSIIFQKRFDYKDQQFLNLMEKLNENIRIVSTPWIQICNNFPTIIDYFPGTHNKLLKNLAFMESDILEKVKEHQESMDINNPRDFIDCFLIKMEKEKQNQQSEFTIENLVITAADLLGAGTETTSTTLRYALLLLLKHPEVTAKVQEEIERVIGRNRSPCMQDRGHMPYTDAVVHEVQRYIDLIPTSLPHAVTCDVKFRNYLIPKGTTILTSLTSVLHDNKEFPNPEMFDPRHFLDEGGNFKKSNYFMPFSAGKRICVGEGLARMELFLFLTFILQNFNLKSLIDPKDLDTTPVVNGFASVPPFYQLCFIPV
Chain of G-protein coupled receptor 35 (Q9HC97 whole entry): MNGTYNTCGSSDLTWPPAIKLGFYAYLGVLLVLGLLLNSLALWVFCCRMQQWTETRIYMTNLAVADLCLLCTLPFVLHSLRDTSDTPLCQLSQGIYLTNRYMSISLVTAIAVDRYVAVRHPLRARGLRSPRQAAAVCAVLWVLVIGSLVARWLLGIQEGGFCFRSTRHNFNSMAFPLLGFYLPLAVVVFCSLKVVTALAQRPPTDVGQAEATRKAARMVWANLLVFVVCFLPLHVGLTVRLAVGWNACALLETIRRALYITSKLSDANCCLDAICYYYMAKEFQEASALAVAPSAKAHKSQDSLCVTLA
Chain of Cytochrome P450 3A4 (P08684 whole entry): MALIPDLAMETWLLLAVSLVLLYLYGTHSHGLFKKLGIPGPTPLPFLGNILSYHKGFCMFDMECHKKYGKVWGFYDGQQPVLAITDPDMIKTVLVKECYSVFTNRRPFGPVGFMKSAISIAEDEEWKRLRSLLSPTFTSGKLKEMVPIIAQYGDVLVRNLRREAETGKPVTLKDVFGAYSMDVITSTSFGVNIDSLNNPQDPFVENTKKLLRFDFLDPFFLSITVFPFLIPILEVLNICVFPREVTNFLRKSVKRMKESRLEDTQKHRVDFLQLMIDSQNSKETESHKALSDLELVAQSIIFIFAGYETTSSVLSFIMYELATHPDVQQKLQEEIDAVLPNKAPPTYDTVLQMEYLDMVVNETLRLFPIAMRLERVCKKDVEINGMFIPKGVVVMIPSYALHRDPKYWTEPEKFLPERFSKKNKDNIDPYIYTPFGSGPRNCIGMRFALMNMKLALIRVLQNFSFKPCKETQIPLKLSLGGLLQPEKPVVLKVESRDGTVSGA

Structure (SMILES): c1ccc(-c2nc(-c3nccc4ccccc34)oc2-c2ccccc2)cc1
- IC50 (cells): > 67.5 µM (inactive)
- EC50 (Streptococcus): > 150 µM (not active)
- EC50 (Streptokinase A): 5.23 µM (active)
- IC50 [1]: > 67.5 µM (inactive)
- EC50 [2]: > 150 µM (not active)
- IC50 [3]: 3.48 µM (active)
- AC50 (HeLa): 132 µM (active)

Structure (SMILES): Cc1cccc(Nc2ccccc2C(=O)OCC(=O)N(C)C2CCS(=O)(=O)C2)c1C (stereo not given)
- AC50 (Cytochrome P450 2C19): 28.2 µM (inconclusive)
- AC50 (Trypsin): 15.5 µM (active)
- AC50 (CAAX prenyl protease 2 [4]): 0.914 µM (active)
- AC50 (Cytochrome P450 3A4): 28.2 µM (inconclusive)
- AC50 (CAAX prenyl protease 2 [5]): 3.45 µM (active)
- AC50 (Cytochrome P450 2C9): 39.8 µM (inconclusive)

Structure (SMILES): Cc1ccc(NC(=O)CN(C)c2ccc(S(=O)(=O)N3CCCC3)cn2)cc1
- EC50 (Troponin, cardiac muscle): > 71.5 µM (inactive)

Structure (SMILES): COc1ccc(C(=O)NC(C)c2nnc(SCc3ccc(Cl)c(Cl)c3)n2C)cc1 (stereo not given)
- IC50 [6]: 5.45 µM (active)
- IC50 [7]: 3.87 µM (active)

Structure (SMILES): Cn1nc(-c2ccccc2)cc1NC(=O)Nc1ccc(C(C)(C)C)cc1
- Absolute IC50 (XBP1) (X-box-binding protein 1): 10 µM
- Absolute IC50 (CHOP) [8]: 10 µM

Structure (SMILES): NC(=S)N/N=C/c1c[nH]nc1-c1ccccc1
- IC50 [9]: > 32 µM (inactive)
- IC50 [10]: > 32 µM (inactive)

Reference: ChEMBL document CHEMBL1201862, “PubChem BioAssay data set” (2004)
